Measured values as given in ChEMBL document CHEMBL1145925, “Carbonic anhydrase inhibitors: inhibition of transmembrane, tumor-associated isozyme IX, and cytosolic isozymes I and II with aliphatic sulfamates” (J Med Chem, 2003).
Where “and” joins values, the source holds several entries; their conditions need not be identical. Equal values may be shown once.

Key:
[1] = target: Carbonic anhydrase 2 (Homo sapiens, UniProt P00918)
[2] = target: Carbonic anhydrase 9 (Homo sapiens, UniProt Q16790)
[3] = target: Carbonic anhydrase 1 (Homo sapiens, UniProt P00915)
Sequence of Carbonic anhydrase 1 (P00915 whole entry): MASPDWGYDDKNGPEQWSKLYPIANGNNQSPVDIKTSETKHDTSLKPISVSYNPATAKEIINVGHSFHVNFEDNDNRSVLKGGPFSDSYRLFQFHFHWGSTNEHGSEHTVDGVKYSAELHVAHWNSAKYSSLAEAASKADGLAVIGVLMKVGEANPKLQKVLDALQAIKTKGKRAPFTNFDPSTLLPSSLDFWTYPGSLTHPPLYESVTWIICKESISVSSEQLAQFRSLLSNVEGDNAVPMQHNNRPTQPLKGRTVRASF

NS(=O)(=O)OC(C(F)(F)F)C(F)(F)F
Ki [1]: 1.58 µM
Ki [2]: 0.279 µM
Ki [3]: 3.54 µM

Cc1ccc(COS(N)(=O)=O)cc1
Ki [1]: 0.0027 µM
Ki [2]: 0.013 µM
Ki [3]: 0.1 µM

NS(=O)(=O)OCc1ccc(-c2ccccc2)cc1
Ki [2]: > 1 µM
Ki [3]: > 1000 µM

C#CCCOS(N)(=O)=O
Ki [1]: 5.9 µM
Ki [2]: 0.633 µM
Ki [3]: 990 µM

NS(=O)(=O)OCCCCl
Ki [1]: 0.57 µM
Ki [2]: > 1 µM
Ki [3]: 4.62 µM

C[C@]12CCC(OS(N)(=O)=O)CC1=C[C@@H](O)C1C2CC[C@]2(C)C(=O)CCC12 (stereo partly specified)
Ki [1]: 0.013 µM
Ki [2]: 0.065 µM
Ki [3]: 0.4 µM

NS(=O)(=O)OCc1ccccc1 [SULFAMIC ACID BENZYL ESTER]
Ki [1]: 0.0034 µM
Ki [2]: 0.014 µM
Ki [3]: 0.76 µM

CCCCCCCCCCCCOS(N)(=O)=O [SULFAMIC ACID DODECYL ESTER]
Ki [1]: 0.01 µM
Ki [2]: 0.009 µM
Ki [3]: 0.27 µM

CCOS(N)(=O)=O [SULFAMIC ACID ETHYL ESTER]
Ki [1]: 5.5 µM
Ki [2]: > 1 µM
Ki [3]: 38 µM

NS(=O)(=O)OC1CCCC1 [SULFAMIC ACID CYCLOPENTYL ESTER]
Ki [1]: > 10 µM
Ki [2]: > 1 µM
Ki [3]: > 1000 µM

CCCCCOS(N)(=O)=O [SULFAMIC ACID PENTYL ESTER]
Ki [1]: 0.058 µM
Ki [3]: 0.71 µM

C[C@]12CCC(OS(N)(=O)=O)CC1=CC(=O)C1C2CC[C@]2(C)C(=O)CCC12 (stereo partly specified)
Ki [1]: 0.023 µM
Ki [2]: 0.076 µM
Ki [3]: 0.41 µM

NS(=O)(=O)OCC1c2ccccc2-c2ccccc21
Ki [1]: 4.5 µM
Ki [2]: > 1 µM
Ki [3]: 38 µM

CCCCCCCCCCCOS(N)(=O)=O [SULFAMIC ACID UNDECYL ESTER]
Ki [1]: 0.0047 µM
Ki [2]: 0.017 µM
Ki [3]: 0.43 µM

CCCOS(N)(=O)=O [SULFAMIC ACID PROPYL ESTER]
Ki [1]: 0.75 µM
Ki [2]: > 1 µM
Ki [3]: 3.7 µM

CCCCOS(N)(=O)=O [SULFAMIC ACID BUTYL ESTER]
Ki [1]: 0.07 µM
Ki [2]: > 1 µM
Ki [3]: 3.1 µM

CCCCCCCCCCOS(N)(=O)=O [DECYL SULFAMATE]
Ki [2]: 0.023 µM and 0.142 µM

CCCCCCCCCCCCCCCCCCOS(N)(=O)=O [SULFAMIC ACID OCTADECYL ESTER]
Ki [1]: 0.129 µM
Ki [2]: 0.12 µM
Ki [3]: 65 µM

NS(=O)(=O)OC1CCCCC1 [SULFAMIC ACID CYCLOHEXYL ESTER]
Ki [1]: 0.06 µM
Ki [2]: > 1 µM
Ki [3]: 59 µM

CC(C)CCC[C@@H](C)[C@H]1CCC2C3CC=C4C[C@@H](OS(N)(=O)=O)CC[C@]4(C)C3CCC21 (stereo partly specified)
Ki [1]: > 10 µM
Ki [2]: > 1 µM
Ki [3]: > 1000 µM

C=CCCOS(N)(=O)=O
Ki [1]: 0.883 µM
Ki [2]: 0.386 µM
Ki [3]: 800 µM

NS(=O)(=O)OCCc1ccccc1 [SULFAMIC ACID PHENETHYL ESTER]
Ki [1]: 0.0011 µM
Ki [2]: 0.012 µM
Ki [3]: 0.41 µM

CC(C)OS(N)(=O)=O [SULFAMIC ACID ISOPROPYL ESTER]
Ki [1]: > 10 µM
Ki [2]: > 1 µM
Ki [3]: 690 µM

NS(=O)(=O)OCC(F)(F)F
Ki [1]: 0.845 µM
Ki [2]: 0.458 µM
Ki [3]: 7.8 µM

CCCCCCCCCCCCCCCCOS(N)(=O)=O [SULFAMIC ACID HEXADECYL ESTER]
Ki [1]: 0.097 µM
Ki [3]: 58 µM

COS(N)(=O)=O [SULFAMIC ACID METHYL ESTER]
Ki [1]: 6 µM
Ki [2]: > 1 µM
Ki [3]: 40 µM

CCCCCCCCCCCCCCOS(N)(=O)=O [SULFAMIC ACID TETRADECYL ESTER]
Ki [1]: 0.087 µM
Ki [2]: 0.015 µM
Ki [3]: 0.15 µM
